The numbers were not newly measured in patent US11964046B2, “Topical composition for the control of pain in animals” (priority 2016, dated 2024), which cites them from elsewhere.

For the data set, the system named is piglets.
Where [1] appears, read: lidocaine injected at least three minutes prior to castration, p<0.001.

As for `CCN(CC)CC(=O)Nc1c(C)cccc1C` [lidocaine], the “pain during castration (study conclusion)” value (injected) is reported as “reduced pain during castration”. Under setting [1], the “intensity of calls during castration” value was “lower intensity” and the “resistance movements during castration” value is recorded as “less resistance movements”.
